Test results as given in EP4745135A1 (Gluetacs Therapeutics (Shanghai) Co., Ltd., priority 2023, dated 2025).

Key:
[1] = molecular target: T1, human Cereblon WT GST-tagged protein (Homo sapiens, UniProt Q96SW2); test: CRBN-binding affinity, HTRF (CEREBLON BINDING kit); settings: for inhibition at 0.5 µM: read-out: Inhibition Rate at 0.5 µM (%); for inhibition at 2 µM: read-out: Inhibition Rate at 2 µM (%)
T1 construct: purchased CISBIO 64BDCRBNPEH

GSPT1 = test: Western blot, degradation of substrate protein in hPBMCs; type: cell-based, Human
IKZF1 = molecular target: T2, IKZF1 (Homo sapiens, UniProt Q13422+Q96SW2); test: as above; type: cell-based
T2 construct: effects of the compounds of the present disclosure on the expression of target proteins in cells; endogenous in cells; host or cells: human PBMCs (Milecell Biotechnologies)

IKZF3 = molecular target: T3, IKZF3 (Homo sapiens, UniProt Q96SW2+Q9UKT9); test: as above; type: cell-based
T3 construct: effects of the compounds of the present disclosure on the expression of target proteins in cells; endogenous in cells; host or cells: human PBMCs (Milecell Biotechnologies)

WEE1 = molecular target: T4, WEE1 (Homo sapiens, UniProt P30291+Q96SW2); test: as above; type: cell-based
T4 construct: effects of the compounds of the present disclosure on the expression of target proteins in cells; endogenous in cells; host or cells: human PBMCs (Milecell Biotechnologies)

CK1α = molecular target: T5, CK1α (Homo sapiens, UniProt P48729+Q96SW2); test: as above; type: cell-based
T5 construct: effects of the compounds of the present disclosure on the expression of target proteins in cells; endogenous in cells; host or cells: human PBMCs (Milecell Biotechnologies)

IKZF2 = molecular target: T6, IKZF2 (Homo sapiens, UniProt Q96SW2+Q9UKS7); test: as above; type: cell-based
T6 construct: effects of the compounds of the present disclosure on the expression of target proteins in cells; endogenous in cells; host or cells: human PBMCs (Milecell Biotechnologies)

[2] = 24 hours treatment, compounds at 50 nM and 500 nM (concentration behind the class not stated)
[3] = Western blot, 24 hours of compound treatment, compounds tested at 50 nM and 500 nM (concentration for the table not stated)

T5 sequence (P48729 whole entry): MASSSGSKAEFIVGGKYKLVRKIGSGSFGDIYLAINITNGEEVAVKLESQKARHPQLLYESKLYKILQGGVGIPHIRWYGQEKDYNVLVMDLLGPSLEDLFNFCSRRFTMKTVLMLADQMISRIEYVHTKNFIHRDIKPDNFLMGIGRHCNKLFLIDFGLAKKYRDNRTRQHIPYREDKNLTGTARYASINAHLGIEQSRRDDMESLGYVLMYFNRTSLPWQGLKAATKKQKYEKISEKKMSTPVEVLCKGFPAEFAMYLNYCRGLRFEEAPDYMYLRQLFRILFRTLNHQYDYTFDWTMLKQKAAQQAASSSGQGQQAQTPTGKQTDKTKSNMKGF
T5 sequence (Q96SW2 whole entry): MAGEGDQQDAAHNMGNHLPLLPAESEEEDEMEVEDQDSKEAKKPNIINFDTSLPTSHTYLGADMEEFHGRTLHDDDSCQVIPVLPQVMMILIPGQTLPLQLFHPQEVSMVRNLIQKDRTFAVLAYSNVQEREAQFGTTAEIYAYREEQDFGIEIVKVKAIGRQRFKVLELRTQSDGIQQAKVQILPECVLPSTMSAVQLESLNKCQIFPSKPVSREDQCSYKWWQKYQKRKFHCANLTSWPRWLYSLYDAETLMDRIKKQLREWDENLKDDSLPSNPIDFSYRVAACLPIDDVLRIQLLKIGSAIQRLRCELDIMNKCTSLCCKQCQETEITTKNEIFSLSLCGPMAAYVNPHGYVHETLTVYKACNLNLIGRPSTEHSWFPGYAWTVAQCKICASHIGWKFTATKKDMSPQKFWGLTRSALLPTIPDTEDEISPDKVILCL
T5 sequence (Q16531 whole entry partner): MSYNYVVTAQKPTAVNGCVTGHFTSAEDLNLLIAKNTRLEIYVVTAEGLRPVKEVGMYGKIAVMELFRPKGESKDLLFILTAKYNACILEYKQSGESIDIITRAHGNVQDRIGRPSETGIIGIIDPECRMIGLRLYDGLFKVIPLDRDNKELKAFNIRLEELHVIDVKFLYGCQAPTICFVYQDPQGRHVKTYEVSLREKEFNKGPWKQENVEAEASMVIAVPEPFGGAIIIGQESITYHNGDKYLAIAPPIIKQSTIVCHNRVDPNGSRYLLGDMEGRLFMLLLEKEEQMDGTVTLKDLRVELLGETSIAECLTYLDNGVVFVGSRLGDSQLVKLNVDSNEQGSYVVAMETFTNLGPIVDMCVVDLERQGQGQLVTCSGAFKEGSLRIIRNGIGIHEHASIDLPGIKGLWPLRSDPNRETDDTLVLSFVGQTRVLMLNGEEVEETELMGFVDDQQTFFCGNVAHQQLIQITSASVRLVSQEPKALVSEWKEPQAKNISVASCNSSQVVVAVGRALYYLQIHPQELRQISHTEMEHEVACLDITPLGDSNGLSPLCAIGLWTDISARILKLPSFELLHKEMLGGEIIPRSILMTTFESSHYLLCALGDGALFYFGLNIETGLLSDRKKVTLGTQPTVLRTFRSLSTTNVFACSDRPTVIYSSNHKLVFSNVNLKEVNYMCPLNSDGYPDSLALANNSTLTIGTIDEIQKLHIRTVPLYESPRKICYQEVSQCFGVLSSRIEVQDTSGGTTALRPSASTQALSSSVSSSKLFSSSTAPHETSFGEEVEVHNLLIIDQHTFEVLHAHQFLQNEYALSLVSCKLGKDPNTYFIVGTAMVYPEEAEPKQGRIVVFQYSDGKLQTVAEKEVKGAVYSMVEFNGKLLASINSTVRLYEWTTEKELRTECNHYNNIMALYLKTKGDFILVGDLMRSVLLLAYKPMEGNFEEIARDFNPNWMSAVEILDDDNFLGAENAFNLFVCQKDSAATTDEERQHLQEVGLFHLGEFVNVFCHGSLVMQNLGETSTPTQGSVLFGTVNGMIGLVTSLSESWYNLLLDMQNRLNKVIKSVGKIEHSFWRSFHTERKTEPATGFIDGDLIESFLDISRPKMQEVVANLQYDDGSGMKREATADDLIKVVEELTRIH
T3 sequence (Q9UKT9 whole entry): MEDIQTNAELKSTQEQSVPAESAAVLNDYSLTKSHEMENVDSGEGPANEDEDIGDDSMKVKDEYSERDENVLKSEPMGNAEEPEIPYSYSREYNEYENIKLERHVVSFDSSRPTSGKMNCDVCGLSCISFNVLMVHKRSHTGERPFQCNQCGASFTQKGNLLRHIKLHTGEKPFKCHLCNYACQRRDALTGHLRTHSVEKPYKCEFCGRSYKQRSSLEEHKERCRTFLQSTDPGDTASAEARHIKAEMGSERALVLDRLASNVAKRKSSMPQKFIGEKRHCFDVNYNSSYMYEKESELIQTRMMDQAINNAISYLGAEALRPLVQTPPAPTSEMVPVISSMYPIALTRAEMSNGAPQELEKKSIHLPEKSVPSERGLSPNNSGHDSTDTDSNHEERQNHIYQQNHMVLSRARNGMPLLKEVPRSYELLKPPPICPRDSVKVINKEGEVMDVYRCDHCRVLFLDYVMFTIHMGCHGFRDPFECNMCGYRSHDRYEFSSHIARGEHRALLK
T3 sequence (Q96SW2 whole entry): as the sequence (Q96SW2 whole entry) above
T3 sequence (Q16531 whole entry partner): as the sequence (Q16531 whole entry partner) above
T4 sequence (P30291 whole entry): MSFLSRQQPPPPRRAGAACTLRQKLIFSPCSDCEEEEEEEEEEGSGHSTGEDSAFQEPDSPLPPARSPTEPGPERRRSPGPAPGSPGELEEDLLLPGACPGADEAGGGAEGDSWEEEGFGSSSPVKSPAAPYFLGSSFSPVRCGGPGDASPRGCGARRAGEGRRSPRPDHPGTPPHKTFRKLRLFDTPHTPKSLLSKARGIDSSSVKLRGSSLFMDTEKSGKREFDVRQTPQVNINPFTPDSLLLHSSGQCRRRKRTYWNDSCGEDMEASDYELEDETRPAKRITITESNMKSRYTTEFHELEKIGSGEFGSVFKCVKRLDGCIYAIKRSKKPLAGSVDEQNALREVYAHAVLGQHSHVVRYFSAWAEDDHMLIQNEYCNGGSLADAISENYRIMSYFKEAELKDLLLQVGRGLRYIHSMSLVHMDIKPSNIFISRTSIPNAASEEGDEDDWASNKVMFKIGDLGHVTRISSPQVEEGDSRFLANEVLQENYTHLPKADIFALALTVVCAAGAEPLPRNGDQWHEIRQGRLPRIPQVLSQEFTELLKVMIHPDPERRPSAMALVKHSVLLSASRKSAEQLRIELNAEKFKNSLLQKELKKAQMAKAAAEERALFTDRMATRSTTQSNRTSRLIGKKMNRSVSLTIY
T4 sequence (Q96SW2 whole entry): as the sequence (Q96SW2 whole entry) above
T4 sequence (Q16531 whole entry partner): as the sequence (Q16531 whole entry partner) above
T1 sequence (Q96SW2 whole entry): as the sequence (Q96SW2 whole entry) above
T2 sequence (Q13422 whole entry): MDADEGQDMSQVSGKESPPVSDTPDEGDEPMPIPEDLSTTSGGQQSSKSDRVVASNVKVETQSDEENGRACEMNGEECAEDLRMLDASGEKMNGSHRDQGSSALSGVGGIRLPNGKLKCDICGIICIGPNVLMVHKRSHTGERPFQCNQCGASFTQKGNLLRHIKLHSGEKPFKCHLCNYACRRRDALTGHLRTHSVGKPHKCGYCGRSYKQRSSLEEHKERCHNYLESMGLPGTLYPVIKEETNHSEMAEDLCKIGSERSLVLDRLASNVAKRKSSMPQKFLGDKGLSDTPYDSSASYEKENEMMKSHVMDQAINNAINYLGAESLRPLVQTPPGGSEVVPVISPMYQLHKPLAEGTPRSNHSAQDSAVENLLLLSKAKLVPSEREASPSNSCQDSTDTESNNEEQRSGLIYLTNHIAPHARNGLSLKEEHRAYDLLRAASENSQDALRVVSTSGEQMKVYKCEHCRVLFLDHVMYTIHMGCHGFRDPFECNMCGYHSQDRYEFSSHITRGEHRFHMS
T2 sequence (Q96SW2 whole entry): as the sequence (Q96SW2 whole entry) above
T2 sequence (Q16531 whole entry partner): as the sequence (Q16531 whole entry partner) above
T6 sequence (Q9UKS7 whole entry): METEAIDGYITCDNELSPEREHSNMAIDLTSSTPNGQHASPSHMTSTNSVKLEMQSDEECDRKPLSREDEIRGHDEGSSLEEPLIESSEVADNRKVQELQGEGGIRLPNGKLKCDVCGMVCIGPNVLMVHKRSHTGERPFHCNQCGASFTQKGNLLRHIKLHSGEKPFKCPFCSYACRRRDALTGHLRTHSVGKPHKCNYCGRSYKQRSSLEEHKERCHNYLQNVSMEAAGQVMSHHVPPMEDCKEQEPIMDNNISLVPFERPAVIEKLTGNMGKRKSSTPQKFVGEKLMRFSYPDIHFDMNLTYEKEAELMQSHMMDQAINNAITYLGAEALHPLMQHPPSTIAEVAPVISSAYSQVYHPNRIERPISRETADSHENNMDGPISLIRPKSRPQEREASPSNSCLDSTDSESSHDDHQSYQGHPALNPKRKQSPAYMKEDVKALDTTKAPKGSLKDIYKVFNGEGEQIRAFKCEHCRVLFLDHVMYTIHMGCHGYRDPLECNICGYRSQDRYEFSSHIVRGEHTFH
T6 sequence (Q96SW2 whole entry): as the sequence (Q96SW2 whole entry) above
T6 sequence (Q16531 whole entry partner): as the sequence (Q16531 whole entry partner) above

Compound | inhibition at 0.5 µM [1] | inhibition at 2 µM [1] | GSPT1 substrate protein remaining % (GSPT1; [2]) | IKZF 1 substrate protein remaining % (IKZF1; [2]) | IKZF3 substrate protein remaining % (IKZF3; [2]) | Wee1 substrate protein remaining % (WEE1; [2]) | CK1α substrate protein remaining % (CK1α; [2]) | IKZF2 substrate protein remaining % (IKZF2; [2]) | GSPT1 substrate protein remaining % (GSPT1; [3]) | IKZF 1 substrate protein remaining % (IKZF1; [3]) | IKZF3 substrate protein remaining % (IKZF3; [3]) | Wee1 substrate protein remaining % (WEE1; [3]) | CK1α substrate protein remaining % (CK1α; [3]) | IKZF2 substrate protein remaining % (IKZF2; [3])
Cc1nc(C2=CCN(Cc3ccc4c(c3)CN(C3CCC(=O)NC3=O)C4=S)CC2)c2c(-c3ccccc3)csc2n1 (stereo not drawn) [GT-09321, 3-(5-((4-(2-methyl-5-phenylthieno[2,3-d]pyrimidin-4-yl)-3,6-dihydropyridin-1(2H)-yl)methyl)-1-thioxoisoindolin-2-yl)piperidine-2,6-dione] | 53 to 60% | 80 to 100% | A (0% ≤ substrate protein remaining % ≤ 80%) | B (80%< substrate protein remaining %≤ 100%) | B (80%< substrate protein remaining %≤ 100%) | A (0% ≤ substrate protein remaining % ≤ 80%) | B (80%< substrate protein remaining %≤ 100%) | B (80%< substrate protein remaining %≤ 100%) | – | – | – | – | – | –
O=C1CCC(N2Cc3cc(CN4CCN(c5ccc(Cl)cc5Cl)CC4)ccc3C2=S)C(=O)N1 (stereo not drawn) [GT-08604, 3-(5-((4-(2,4-dichlorophenyl)piperazin-1-yl)methyl)-1-thioxoisoindolin-2-yl)piperidine-2,6-dione] | 30 to 40% | 60 to 80% | – | – | – | – | – | – | A (0% ≤ substrate protein remaining % ≤ 80%) | B (80%< substrate protein remaining %≤ 100%) | B (80%< substrate protein remaining %≤ 100%) | B (80%< substrate protein remaining %≤ 100%) | B (80%< substrate protein remaining %≤ 100%) | B (80%< substrate protein remaining %≤ 100%)
O=C1CCC(N2Cc3c(CN4CCN(c5c[nH]c6ncccc56)CC4)cccc3C2=S)C(=O)N1 (stereo not drawn) [GT-08841, 3-(4-((4-(1H-pyrrolo[2,3-b]pyridin-3-yl)piperazin-1-yl)methyl)-1-thioxoisoindolin-2-yl)piperidine-2,6-dione] | 60 to 80% | 80 to 100% | – | – | – | – | – | – | A (0% ≤ substrate protein remaining % ≤ 80%) | B (80%< substrate protein remaining %≤ 100%) | B (80%< substrate protein remaining %≤ 100%) | A (0% ≤ substrate protein remaining % ≤ 80%) | B (80%< substrate protein remaining %≤ 100%) | B (80%< substrate protein remaining %≤ 100%)
O=C1CCC(N2Cc3c(CN4CCC(c5cccc(Cl)c5Cl)CC4)cccc3C2=S)C(=O)N1 (stereo not drawn) [GT-08269, 3-(4-((4-(2,3-dichlorophenyl)piperidin-1-yl)methyl)-1-thioxoisoindolin-2-yl)piperidine-2,6-dione] | 30 to 40% | 53 to 60% | – | – | – | – | – | – | A (0% ≤ substrate protein remaining % ≤ 80%) | B (80%< substrate protein remaining %≤ 100%) | B (80%< substrate protein remaining %≤ 100%) | A (0% ≤ substrate protein remaining % ≤ 80%) | B (80%< substrate protein remaining %≤ 100%) | B (80%< substrate protein remaining %≤ 100%)
O=C1CCC(N2Cc3c(CN4CCC(N5CCOc6cc(F)ccc65)CC4)cccc3C2=S)C(=O)N1 (stereo not drawn) [GT-08852, 3-(4-((4-(7-fluoro-2,3-dihydro-4H-benzo[b][1,4]oxazin-4-yl)piperidin-1-yl)methyl)-1-thioxoisoindolin-2-yl)piperidine-2,6-dione] | 40 to 53% | 80 to 100% | B (80%< substrate protein remaining %≤ 100%) | B (80%< substrate protein remaining %≤ 100%) | B (80%< substrate protein remaining %≤ 100%) | A (0% ≤ substrate protein remaining % ≤ 80%) | B (80%< substrate protein remaining %≤ 100%) | B (80%< substrate protein remaining %≤ 100%) | – | – | – | – | – | –
Cc1nc(C2=CCN(Cc3cccc4c3CN(C3CCC(=O)NC3=O)C4=S)CC2)c2c3c(sc2n1)CCC3 (stereo not drawn) [GT-08964, 3-(4-((4-(2-methyl-6,7-dihydro-5H-cyclopenta[4,5]thieno[2,3-d]pyrimidin-4-yl)-3,6-dihydropyridin-1(2H)-yl)methyl)-1-thioxoisoindolin-2-yl)piperidine-2,6-dione] | 53 to 60% | 80 to 100% | B (80%< substrate protein remaining %≤ 100%) | B (80%< substrate protein remaining %≤ 100%) | B (80%< substrate protein remaining %≤ 100%) | A (0% ≤ substrate protein remaining % ≤ 80%) | B (80%< substrate protein remaining %≤ 100%) | B (80%< substrate protein remaining %≤ 100%) | – | – | – | – | – | –
Cc1cc(C2=CCN(Cc3cccc4c3CN(C3CCC(=O)NC3=O)C4=S)CC2)cs1 (stereo not drawn) [GT-08318, 3-(4-((4-(5-methylthiophen-3-yl)-3,6-dihydropyridin-1(2H)-yl)methyl)-1-thioxoisoindolin-2-yl)piperidine-2,6-dione] | 40 to 53% | 60 to 80% | B (80%< substrate protein remaining %≤ 100%) | B (80%< substrate protein remaining %≤ 100%) | A (0% ≤ substrate protein remaining % ≤ 80%) | A (0% ≤ substrate protein remaining % ≤ 80%) | B (80%< substrate protein remaining %≤ 100%) | B (80%< substrate protein remaining %≤ 100%) | – | – | – | – | – | –
O=C1CCC(N2Cc3c(CN4CC=C(c5ncnc6sc7c(c56)CCC7)CC4)cccc3C2=S)C(=O)N1 (stereo not drawn) [GT-08963, 3-(4-((4-(6,7-dihydro-5H-cyclopenta[4,5]thieno[2,3-d]pyrimidin-4-yl)-3,6-dihydropyridin-1(2H)-yl)methyl)-1-thioxoisoindolin-2-yl)piperidine-2,6-dione] | 60 to 80% | 80 to 100% | B (80%< substrate protein remaining %≤ 100%) | B (80%< substrate protein remaining %≤ 100%) | B (80%< substrate protein remaining %≤ 100%) | A (0% ≤ substrate protein remaining % ≤ 80%) | B (80%< substrate protein remaining %≤ 100%) | B (80%< substrate protein remaining %≤ 100%) | – | – | – | – | – | –
O=C1CCC(N2Cc3c(CN4CCC(c5ncnc6scc(-c7ccccc7)c56)CC4)cccc3C2=S)C(=O)N1 (stereo not drawn) [GT-08930, 3-(4-((4-(5-phenylthieno[2,3-d]pyrimidin-4-yl)piperidin-1-yl)methyl)-1-thioxoisoindolin-2-yl)piperidine-2,6-dione] | 53 to 60% | 80 to 100% | B (80%< substrate protein remaining %≤ 100%) | B (80%< substrate protein remaining %≤ 100%) | B (80%< substrate protein remaining %≤ 100%) | A (0% ≤ substrate protein remaining % ≤ 80%) | B (80%< substrate protein remaining %≤ 100%) | B (80%< substrate protein remaining %≤ 100%) | – | – | – | – | – | –
